From ChEMBL document CHEMBL3991601, “The target landscape of clinical kinase drugs” (Science, 2017)
Structures can show the parent of a compound that is named as a salt. The source made the active and inactive calls.

Legend:
[1] = molecular target: Activin receptor type-2B (Homo sapiens, UniProt Q13705)
[2] = molecular target: T1, Ephrin type-B receptor 3 (Homo sapiens, UniProt P54753)
T1 sequence (P54753 whole entry): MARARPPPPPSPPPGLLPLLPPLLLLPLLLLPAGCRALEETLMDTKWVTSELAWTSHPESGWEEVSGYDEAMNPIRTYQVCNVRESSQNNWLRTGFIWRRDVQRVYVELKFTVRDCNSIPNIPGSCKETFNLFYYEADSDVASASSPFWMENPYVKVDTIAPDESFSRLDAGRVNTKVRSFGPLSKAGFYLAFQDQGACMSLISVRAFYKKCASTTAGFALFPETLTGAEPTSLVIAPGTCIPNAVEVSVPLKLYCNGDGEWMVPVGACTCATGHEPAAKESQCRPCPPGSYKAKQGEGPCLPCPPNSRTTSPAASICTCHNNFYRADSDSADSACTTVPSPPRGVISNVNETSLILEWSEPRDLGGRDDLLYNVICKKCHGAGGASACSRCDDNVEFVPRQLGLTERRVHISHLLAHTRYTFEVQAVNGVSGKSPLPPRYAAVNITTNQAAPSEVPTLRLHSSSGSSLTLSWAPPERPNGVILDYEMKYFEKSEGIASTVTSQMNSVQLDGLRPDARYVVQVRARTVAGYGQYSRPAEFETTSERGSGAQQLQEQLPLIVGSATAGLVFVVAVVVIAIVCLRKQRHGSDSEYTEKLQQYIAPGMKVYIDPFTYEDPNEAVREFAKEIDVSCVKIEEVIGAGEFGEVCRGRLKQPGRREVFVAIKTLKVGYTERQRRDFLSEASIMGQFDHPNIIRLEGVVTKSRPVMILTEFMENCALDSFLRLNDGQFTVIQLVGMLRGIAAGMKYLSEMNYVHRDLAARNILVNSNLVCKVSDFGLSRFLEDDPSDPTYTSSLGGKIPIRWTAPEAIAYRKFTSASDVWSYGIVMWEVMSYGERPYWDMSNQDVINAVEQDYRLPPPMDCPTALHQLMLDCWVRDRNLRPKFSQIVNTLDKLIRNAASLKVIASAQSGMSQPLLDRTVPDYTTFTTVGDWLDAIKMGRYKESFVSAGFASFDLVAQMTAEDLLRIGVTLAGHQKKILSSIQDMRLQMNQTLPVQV

[3] = molecular target: T2, Mitogen-activated protein kinase 15 (Homo sapiens, UniProt Q8TD08)
T2 sequence (Q8TD08 whole entry): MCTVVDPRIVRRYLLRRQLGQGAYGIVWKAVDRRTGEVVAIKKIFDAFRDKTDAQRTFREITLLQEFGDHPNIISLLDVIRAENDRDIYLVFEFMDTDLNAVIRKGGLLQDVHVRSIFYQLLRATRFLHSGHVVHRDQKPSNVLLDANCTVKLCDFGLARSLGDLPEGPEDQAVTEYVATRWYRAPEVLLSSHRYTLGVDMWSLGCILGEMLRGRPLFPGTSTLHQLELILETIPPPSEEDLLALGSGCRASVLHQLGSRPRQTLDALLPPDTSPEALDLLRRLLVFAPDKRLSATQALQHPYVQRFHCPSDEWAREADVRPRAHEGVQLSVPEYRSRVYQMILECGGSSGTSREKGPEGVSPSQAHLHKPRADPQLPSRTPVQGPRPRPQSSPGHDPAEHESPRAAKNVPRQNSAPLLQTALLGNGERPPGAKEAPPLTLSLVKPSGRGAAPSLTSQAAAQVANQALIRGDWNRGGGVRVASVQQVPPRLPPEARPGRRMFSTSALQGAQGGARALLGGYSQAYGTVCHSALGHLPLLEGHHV

[4] = molecular target: NADH dehydrogenase [ubiquinone] 1 alpha subcomplex subunit 13 (Homo sapiens, UniProt Q9P0J0)
NADH dehydrogenase [ubiquinone] 1 alpha subcomplex subunit 13, sequence (Q9P0J0 whole entry, one chain of several): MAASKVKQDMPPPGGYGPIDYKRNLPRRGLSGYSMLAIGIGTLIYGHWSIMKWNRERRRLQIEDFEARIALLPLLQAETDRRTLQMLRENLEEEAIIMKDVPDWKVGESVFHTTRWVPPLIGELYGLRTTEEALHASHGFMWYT

[5] = molecular target: T3, Serine/threonine-protein kinase Nek3 (Homo sapiens, UniProt P51956)
T3 sequence (P51956 whole entry): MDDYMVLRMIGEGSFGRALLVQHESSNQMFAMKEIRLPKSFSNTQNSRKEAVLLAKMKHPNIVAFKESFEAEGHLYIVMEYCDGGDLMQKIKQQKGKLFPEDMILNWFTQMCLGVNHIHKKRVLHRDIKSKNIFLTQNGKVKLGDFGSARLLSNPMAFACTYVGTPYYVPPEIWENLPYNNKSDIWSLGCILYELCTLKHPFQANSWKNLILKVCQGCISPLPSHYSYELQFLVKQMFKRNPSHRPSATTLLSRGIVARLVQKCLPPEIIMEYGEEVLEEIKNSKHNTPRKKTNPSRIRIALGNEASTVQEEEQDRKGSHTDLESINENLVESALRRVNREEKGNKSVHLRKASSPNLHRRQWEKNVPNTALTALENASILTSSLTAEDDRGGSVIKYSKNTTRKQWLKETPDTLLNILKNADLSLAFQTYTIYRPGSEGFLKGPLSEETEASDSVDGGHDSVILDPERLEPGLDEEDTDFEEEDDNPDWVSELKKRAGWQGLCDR
Also: in the data inactive means no Kd found up to 30 µM.

Activin receptor type-2B, sequence (Q13705 whole entry): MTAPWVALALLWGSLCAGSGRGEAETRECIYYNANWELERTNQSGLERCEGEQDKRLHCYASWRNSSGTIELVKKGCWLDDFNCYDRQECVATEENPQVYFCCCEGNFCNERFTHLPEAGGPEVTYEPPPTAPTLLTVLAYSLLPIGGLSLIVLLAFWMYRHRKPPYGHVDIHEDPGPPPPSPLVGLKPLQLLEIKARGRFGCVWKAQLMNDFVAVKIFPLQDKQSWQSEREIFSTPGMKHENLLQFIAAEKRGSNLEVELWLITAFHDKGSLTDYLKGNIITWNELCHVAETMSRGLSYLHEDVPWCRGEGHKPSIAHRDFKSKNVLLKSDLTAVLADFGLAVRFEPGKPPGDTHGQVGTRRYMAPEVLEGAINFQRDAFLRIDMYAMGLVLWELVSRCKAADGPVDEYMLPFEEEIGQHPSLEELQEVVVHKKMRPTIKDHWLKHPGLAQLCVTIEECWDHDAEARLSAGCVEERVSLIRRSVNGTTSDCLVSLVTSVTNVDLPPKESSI

SMILES	Kd [1]	Kd [2]	Kd [3]	Kd [4]	Kd [5]
COc1cc2ncnc(Oc3cccc(NC(=O)Nc4cc(C(C)(C)C(F)(F)F)on4)c3)c2cc1OC [CEP-32496]	> 30 µM (inactive)	> 30 µM (inactive)	> 30 µM (inactive)	> 30 µM (inactive)	> 30 µM (inactive)
CCS(=O)(=O)N1CCN(c2ccc(Nc3ncc(C(N)=O)c(NC4CC4)n3)cc2)CC1 [Cerdulatinib Hydrochloride]	> 30 µM (inactive)	> 30 µM (inactive)	> 30 µM (inactive)	> 30 µM (inactive)	1.1 µM (active)
Cc1cc(C(=O)NOCCO)c(Nc2ccc(I)cc2F)n(C)c1=O [AZD-8330]	> 30 µM (inactive)	> 30 µM (inactive)	> 30 µM (inactive)	> 30 µM (inactive)	> 30 µM (inactive)
C#Cc1cccc(Nc2ncnc3cc(OC)c(OCCCCCCC(=O)NO)cc23)c1 [CUDC-101]	> 30 µM (inactive)	> 30 µM (inactive)	> 30 µM (inactive)	> 30 µM (inactive)	> 30 µM (inactive)
NC1(c2ccc(-c3nc4ccn5c(=O)[nH]nc5c4cc3-c3ccccc3)cc2)CCC1 [MK-2206]	> 30 µM (inactive)	> 30 µM (inactive)	> 30 µM (inactive)	> 30 µM (inactive)	> 30 µM (inactive)
Cc1nc2cc(-c3nn(C(C)C)c4ncnc(N)c34)ccc2o1	0.901 µM (active)	> 30 µM (inactive)	> 30 µM (inactive)	> 30 µM (inactive)	> 30 µM (inactive)
O=C1NC(=O)[C@@H](c2cn3c4c(cccc24)CCC3)[C@@H]1c1c[nH]c2ccccc12 [TIVANTINIB]	> 30 µM (inactive)	> 30 µM (inactive)	> 30 µM (inactive)	> 30 µM (inactive)	> 30 µM (inactive)
CO[C@H]1C[C@@H]2CC[C@@H](C)[C@@](O)(O2)C(=O)C(=O)N2CCCC[C@H]2C(=O)O[C@H]([C@H](C)C[C@@H]2CC[C@@H](OP(C)(C)=O)[C@H](OC)C2)CC(=O)[C@H](C)/C=C(\C)[C@@H](O)[C@@H](OC)C(=O)[C@H](C)C[C@H](C)/C=C/C=C/C=C/1C [RIDAFOROLIMUS]	> 30 µM (inactive)	> 30 µM (inactive)	> 30 µM (inactive)	> 30 µM (inactive)	> 30 µM (inactive)
COCC(=O)NC/C=C/c1ccc2ncnc(Nc3ccc(Oc4ccc(C)nc4)c(C)c3)c2c1 [CP-724714]	> 30 µM (inactive)	> 30 µM (inactive)	> 30 µM (inactive)	> 30 µM (inactive)	> 30 µM (inactive)
CCCCCCCCCCCCCCCCCCOP(=O)([O-])OC1CC[N+](C)(C)CC1 [PERIFOSINE]	> 30 µM (inactive)	> 30 µM (inactive)	> 30 µM (inactive)	> 30 µM (inactive)	> 30 µM (inactive)
COc1ncc(-c2ccc3nccc(-c4ccnnc4)c3c2)cc1NS(=O)(=O)c1ccc(F)cc1F [OMIPALISIB]	> 30 µM (inactive)	> 30 µM (inactive)	> 30 µM (inactive)	> 30 µM (inactive)	> 30 µM (inactive)
Cc1cnc(NC(=O)Nc2cc(Br)c(C)cc2OC[C@@H]2CNCCO2)cn1 [RABUSERTIB]	> 30 µM (inactive)	> 30 µM (inactive)	> 30 µM (inactive)	> 30 µM (inactive)	> 30 µM (inactive)
C[C@@H](Oc1cc(C(=O)Nc2ccc(C(=O)N3CCN(C)CC3)cc2)nnc1N)c1c(Cl)ccc(F)c1Cl	> 30 µM (inactive)	> 30 µM (inactive)	> 30 µM (inactive)	> 30 µM (inactive)	> 30 µM (inactive)
Cc1cccc(-c2nn3c(c2-c2ccnc4ccc(C(N)=O)cc24)CCC3)n1 [GALUNISERTIB]	> 30 µM (inactive)	> 30 µM (inactive)	> 30 µM (inactive)	> 30 µM (inactive)	> 30 µM (inactive)
O=C(Nc1nc2cccc(-c3ccc(CN4CCS(=O)(=O)CC4)cc3)n2n1)C1CC1 [FILGOTINIB]	> 30 µM (inactive)	> 30 µM (inactive)	> 30 µM (inactive)	> 30 µM (inactive)	> 30 µM (inactive)
Cc1nc(Nc2n[nH]c3c2CN(C(=O)N[C@H](CN(C)C)c2ccccc2)C3(C)C)c2sccc2n1 [PF-03758309]	> 30 µM (inactive)	> 30 µM (inactive)	> 30 µM (inactive)	> 30 µM (inactive)	> 30 µM (inactive)
COc1cc([C@@H]2c3cc4c(cc3[C@H](O)[C@H]3COC(=O)[C@@H]23)OCO4)cc(OC)c1OC [AXL-1717]	> 30 µM (inactive)	> 30 µM (inactive)	> 30 µM (inactive)	> 30 µM (inactive)	> 30 µM (inactive)
Cc1[nH]c(/C=C2\C(=O)Nc3ccccc32)c(C)c1CCC(=O)O [ORANTINIB]	> 30 µM (inactive)	> 30 µM (inactive)	> 30 µM (inactive)	> 30 µM (inactive)	> 30 µM (inactive)
COCc1c(-c2ccc(NC(=O)Nc3cc(C(F)(F)F)ccc3F)c(F)c2)c2c(N)ncnn2c1CN1CCOCC1	> 30 µM (inactive)	> 30 µM (inactive)	> 30 µM (inactive)	> 30 µM (inactive)	> 30 µM (inactive)
Nc1ncnc2c1c(-c1cccc(OCc3ccccc3)c1)cn2[C@H]1C[C@@H](CN2CCC2)C1 [AEW-541]	> 30 µM (inactive)	> 30 µM (inactive)	> 30 µM (inactive)	> 30 µM (inactive)	> 30 µM (inactive)
CN1CCN(CCOc2cc(OC3CCOCC3)c3c(Nc4c(Cl)ccc5c4OCO5)ncnc3c2)CC1 [SARACATINIB]	3.88 µM (active)	> 30 µM (inactive)	> 30 µM (inactive)	> 30 µM (inactive)	> 30 µM (inactive)
CNC(=O)c1cc(Oc2ccc(NC(=O)Nc3cc(C(C)(C)C)nn3-c3ccc4ncccc4c3)c(F)c2)ccn1 [REBASTINIB]	> 30 µM (inactive)	> 30 µM (inactive)	0.276 µM (active)	> 30 µM (inactive)	> 30 µM (inactive)
C=CC(=O)N1CCC[C@H](n2c(=O)n(-c3ccc(Oc4ccccc4)cc3)c3c(N)ncnc32)C1	> 30 µM (inactive)	> 30 µM (inactive)	> 30 µM (inactive)	> 30 µM (inactive)	> 30 µM (inactive)
COc1ccc(S(=O)(=O)N(C(C)=O)c2ccccc2/C=C/c2cc[n+]([O-])cc2)cc1 [HMN-214]	> 30 µM (inactive)	> 30 µM (inactive)	> 30 µM (inactive)	> 30 µM (inactive)	> 30 µM (inactive)
COc1cc2c(Nc3ccc(Cl)c(Cl)c3F)ncnc2cc1OC[C@@H]1C[C@@H]2CN(C)C[C@@H]2C1 [TESEVATINIB]	> 30 µM (inactive)	> 30 µM (inactive)	> 30 µM (inactive)	> 30 µM (inactive)	> 30 µM (inactive)
